PubChem BioAssay AID256 (DTP/NCI, 2004)
Toxic doses and inconclusive results are not listed. How the source made its calls: active means survival T/C of 150% or more; inactive means T/C below 125% in these data.

Test system: CD2F1 mice, L1210 leukemia ip, survival T/C
Test: NCI In Vivo Anticancer Drug Screen. Data for tumor model L1210 Leukemia (intraperitoneal) in CD2F1 (CDF1) mice
Conditions: higher = longer survival
Procedure, shortened: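 Read-out first: treated-group measurement over vehicle-control measurement, expressed as a ratio. Animals bore a transplanted tumor line and were dosed with compound or vehicle.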

[1] = endpoint: mean survival time, dose: 100.0 mg/kg/injection, schedule: Q01DX009 (ip), vehicle: saline with Tween-80
[2] = endpoint: mean survival time, dose: 200.0 mg/kg/injection, schedule: Q01DX009 (ip), vehicle: saline with Tween-80
[3] = endpoint: mean survival time, dose: 400.0 mg/kg/injection, schedule: Q01DX009 (ip), vehicle: saline with Tween-80
[4] = endpoint: mean survival time, dose: 50.0 mg/kg/injection, schedule: Q01DX009 (ip), vehicle: saline with Tween-80
[5] = endpoint: mean survival time, dose: 100.0 mg/kg/injection, schedule: Q04DX003 (ip), vehicle: saline with Tween-80
[6] = endpoint: mean survival time, dose: 200.0 mg/kg/injection, schedule: Q04DX003 (ip), vehicle: saline with Tween-80
[7] = endpoint: mean survival time, dose: 400.0 mg/kg/injection, schedule: Q04DX003 (ip), vehicle: saline with Tween-80
[8] = endpoint: mean survival time, dose: 100.0 mg/kg/injection, schedule: Q01DX001 (ip), vehicle: saline with Tween-80

Measured: T/C

N#CN=[N+]([O-])c1ccc(C(=O)O)cc1
inactive: endpoint: mean survival time, dose: 1.87 mg/kg/injection, schedule: Q01DX009 (ip), vehicle: Klucel (hydroxypropylcellulose) (HPC) 106 % of control | endpoint: mean survival time, dose: 3.75 mg/kg/injection, schedule: Q01DX009 (ip), vehicle: Klucel (hydroxypropylcellulose) (HPC) 95 % of control | endpoint: mean survival time, dose: 7.5 mg/kg/injection, schedule: Q01DX009 (ip), vehicle: Klucel (hydroxypropylcellulose) (HPC) 95 % of control | endpoint: mean survival time, dose: 15.0 mg/kg/injection, schedule: Q01DX009 (ip), vehicle: Klucel (hydroxypropylcellulose) (HPC) 96 % of control | endpoint: mean survival time, dose: 30.0 mg/kg/injection, schedule: Q01DX009 (ip), vehicle: Klucel (hydroxypropylcellulose) (HPC) 98 % of control | endpoint: mean survival time, dose: 60.0 mg/kg/injection, schedule: Q01DX009 (ip), vehicle: Klucel (hydroxypropylcellulose) (HPC) 106 % of control | endpoint: median survival time, dose: 1.87 mg/kg/injection, schedule: Q01DX009 (ip), vehicle: Klucel (hydroxypropylcellulose) (HPC) 101 % of control | endpoint: median survival time, dose: 3.75 mg/kg/injection, schedule: Q01DX009 (ip), vehicle: Klucel (hydroxypropylcellulose) (HPC) 95 % of control | endpoint: median survival time, dose: 7.5 mg/kg/injection, schedule: Q01DX009 (ip), vehicle: Klucel (hydroxypropylcellulose) (HPC) 95 % of control | endpoint: median survival time, dose: 15.0 mg/kg/injection, schedule: Q01DX009 (ip), vehicle: Klucel (hydroxypropylcellulose) (HPC) 109 % of control | endpoint: median survival time, dose: 30.0 mg/kg/injection, schedule: Q01DX009 (ip), vehicle: Klucel (hydroxypropylcellulose) (HPC) 93 % of control

OCC1OC(n2ncc3c2N=CN2CCN=C32)C(O)C1O (stereo not drawn)
inactive: endpoint: mean survival time, dose: 12.5 mg/kg/injection, schedule: Q01DX009 (ip), vehicle: water 95 % of control | endpoint: mean survival time, dose: 25.0 mg/kg/injection, schedule: Q01DX009 (ip), vehicle: water 98 % of control | endpoint: mean survival time, dose: 50.0 mg/kg/injection, schedule: Q01DX009 (ip), vehicle: water 102 % of control | endpoint: mean survival time, dose: 100.0 mg/kg/injection, schedule: Q01DX009 (ip), vehicle: water 95 % of control | endpoint: mean survival time, dose: 200.0 mg/kg/injection, schedule: Q01DX009 (ip), vehicle: water 95 % of control

OCCOc1cccc(OCCO)c1
inactive: [1] 96 % of control | [2] 96 % of control | [3] 115 % of control

CC12c3ccccc3C(c3ccccc31)C1C(=O)OC(=O)C12 (stereo not drawn)
inactive: [4] 95 % of control | [1] 103 % of control

COc1cccc2c1CCC13OC(O)CC21CCCC3C#N (stereo not drawn)
inactive: endpoint: mean survival time, dose: 100.0 mg/kg/injection, schedule: Q01DX001 (ip), vehicle: saline 95 % of control | endpoint: mean survival time, dose: 200.0 mg/kg/injection, schedule: Q01DX001 (ip), vehicle: saline 95 % of control | endpoint: mean survival time, dose: 400.0 mg/kg/injection, schedule: Q01DX001 (ip), vehicle: saline 90 % of control

CCC1(CC)CO1
inactive: [1] 104 % of control | endpoint: mean survival time, dose: 100.0 mg/kg/injection, schedule: Q04DX003 (ip), vehicle: saline 96 % of control | [2] 93 % of control | endpoint: mean survival time, dose: 200.0 mg/kg/injection, schedule: Q04DX003 (ip), vehicle: saline 94 % of control | [3] 97 % of control | endpoint: mean survival time, dose: 400.0 mg/kg/injection, schedule: Q04DX003 (ip), vehicle: saline 98 % of control

O=C1C=CC(=Nc2ccccc2Cl)O1
inactive: [5] 103 % of control | [6] 101 % of control | [7] 100 % of control

O=C(O)/C=C/C(=O)Nc1cccc2ccccc12
inactive: [4] 105 % of control | [1] 100 % of control | [5] 95 % of control | [2] 89 % of control | [6] 105 % of control

CCCCCCCCCCCCCCCCCC[N+](CCO)(CCO)Cc1ccc(C[N+](CCO)(CCO)CCCCCCCCCCCCCCCCCC)cc1
inactive: endpoint: mean survival time, dose: 12.5 mg/kg/injection, schedule: Q04DX002 (ip), vehicle: saline with Tween-80 101 % of control | endpoint: mean survival time, dose: 25.0 mg/kg/injection, schedule: Q04DX002 (ip), vehicle: saline with Tween-80 101 % of control | endpoint: mean survival time, dose: 50.0 mg/kg/injection, schedule: Q04DX002 (ip), vehicle: saline with Tween-80 89 % of control

CCCCOC(=O)c1cccc([N+](=O)[O-])c1
inactive: [4] 93 % of control | [1] 104 % of control | [2] 105 % of control

COc1cc(/C(C)=N\O)ccc1O
inactive: endpoint: mean survival time, dose: 100.0 mg/kg/injection, schedule: Q01DX001 (ip), vehicle: other 102 % of control | endpoint: mean survival time, dose: 100.0 mg/kg/injection, schedule: Q01DX009 (ip), vehicle: other 107 % of control | endpoint: mean survival time, dose: 200.0 mg/kg/injection, schedule: Q01DX001 (ip), vehicle: other 108 % of control | endpoint: mean survival time, dose: 200.0 mg/kg/injection, schedule: Q01DX009 (ip), vehicle: other 102 % of control | endpoint: mean survival time, dose: 400.0 mg/kg/injection, schedule: Q01DX001 (ip), vehicle: other 98 % of control | endpoint: mean survival time, dose: 400.0 mg/kg/injection, schedule: Q01DX009 (ip), vehicle: other 90 % of control

CCCCCC(O)CCCC (stereo not drawn)
inactive: [4] 91 % of control | [1] 100 % of control | [2] 106 % of control

COc1cccc2c1C(=O)c1c(O)c3c(c(O)c1C2=O)C[C@@](O)(C(=O)CN1CCN(C)CC1)C[C@@H]3OC1CC(N)C(O)C(C)O1 (stereo partly drawn)
inactive: endpoint: mean survival time, dose: 6.25 mg/kg/injection, schedule: Q04DX003 (ip), vehicle: water 88 % of control | endpoint: mean survival time, dose: 12.5 mg/kg/injection, schedule: Q04DX003 (ip), vehicle: water 90 % of control | endpoint: mean survival time, dose: 25.0 mg/kg/injection, schedule: Q04DX003 (ip), vehicle: water 90 % of control | endpoint: mean survival time, dose: 50.0 mg/kg/injection, schedule: Q04DX003 (ip), vehicle: water 91 % of control | endpoint: mean survival time, dose: 100.0 mg/kg/injection, schedule: Q04DX003 (ip), vehicle: water 86 % of control

O=C(O)/C=N/NS(=O)(=O)c1ccc2ccccc2c1
inactive: endpoint: mean survival time, dose: 12.5 mg/kg/injection, schedule: Q04DX003 (ip), vehicle: other 114 % of control | endpoint: mean survival time, dose: 25.0 mg/kg/injection, schedule: Q04DX003 (ip), vehicle: other 119 % of control | endpoint: mean survival time, dose: 50.0 mg/kg/injection, schedule: Q04DX003 (ip), vehicle: other 119 % of control | endpoint: mean survival time, dose: 100.0 mg/kg/injection, schedule: Q04DX003 (ip), vehicle: other 110 % of control | endpoint: mean survival time, dose: 200.0 mg/kg/injection, schedule: Q04DX003 (ip), vehicle: other 103 % of control

NC(N)=NCC(=O)O
inactive: [5] 94 % of control | [6] 102 % of control | [7] 98 % of control

CC[N+](CC)=c1ccc2nc3c(cc(N)c4ccccc43)oc-2c1
inactive: endpoint: mean survival time, dose: 6.25 mg/kg/injection, schedule: Q01DX009 (ip), vehicle: saline sonified 97 % of control | endpoint: mean survival time, dose: 6.25 mg/kg/injection, schedule: Q04DX003 (ip), vehicle: saline with Tween-80 101 % of control | endpoint: mean survival time, dose: 12.5 mg/kg/injection, schedule: Q01DX009 (ip), vehicle: saline sonified 104 % of control | endpoint: mean survival time, dose: 12.5 mg/kg/injection, schedule: Q04DX003 (ip), vehicle: saline with Tween-80 101 % of control | endpoint: mean survival time, dose: 25.0 mg/kg/injection, schedule: Q04DX003 (ip), vehicle: saline with Tween-80 98 % of control

COc1c(NC(C)=O)cc2c(c1C)OC(C)(C)C=C2
inactive: [1] 101 % of control | [2] 98 % of control

CC(=O)Nc1cccc(OCCOc2ccccc2[N+](=O)[O-])c1
inactive: endpoint: mean survival time, dose: 100.0 mg/kg/injection, schedule: Q04DX002 (ip), vehicle: Klucel (hydroxypropylcellulose) (HPC) 95 % of control | endpoint: mean survival time, dose: 200.0 mg/kg/injection, schedule: Q04DX002 (ip), vehicle: Klucel (hydroxypropylcellulose) (HPC) 107 % of control | endpoint: mean survival time, dose: 400.0 mg/kg/injection, schedule: Q04DX002 (ip), vehicle: Klucel (hydroxypropylcellulose) (HPC) 103 % of control

CC(=O)/C(=C\c1ccccc1)CNC(C)(C)C
inactive: endpoint: mean survival time, dose: 25.0 mg/kg/injection, schedule: Q01DX001 (ip), vehicle: saline with Tween-80 92 % of control | endpoint: mean survival time, dose: 50.0 mg/kg/injection, schedule: Q01DX001 (ip), vehicle: saline with Tween-80 100 % of control | [8] 100 % of control

CCCC/C=C\C=C/CCCC
inactive: [8] 102 % of control | endpoint: mean survival time, dose: 200.0 mg/kg/injection, schedule: Q01DX001 (ip), vehicle: saline with Tween-80 102 % of control | endpoint: mean survival time, dose: 400.0 mg/kg/injection, schedule: Q01DX001 (ip), vehicle: saline with Tween-80 94 % of control

Nc1nc(SCC(=O)c2ccccc2)c2[nH]cnc2n1
inactive: endpoint: mean survival time, dose: 100.0 mg/kg/injection, schedule: Q04DX003 (ip), vehicle: saline sonified 113 % of control | endpoint: mean survival time, dose: 176.0 mg/kg/injection, schedule: Q04DX003 (ip), vehicle: saline with Tween-80 113 % of control | endpoint: mean survival time, dose: 200.0 mg/kg/injection, schedule: Q04DX003 (ip), vehicle: saline sonified 107 % of control

Cc1cn(C2CC(O)C(COC(N)=O)O2)c(=O)[nH]c1=O (stereo not drawn)
inactive: endpoint: mean survival time, dose: 100.0 mg/kg/injection, schedule: Q01DX001 (ip), vehicle: Klucel (hydroxypropylcellulose) (HPC) 116 % of control | endpoint: mean survival time, dose: 200.0 mg/kg/injection, schedule: Q01DX001 (ip), vehicle: Klucel (hydroxypropylcellulose) (HPC) 92 % of control | endpoint: mean survival time, dose: 400.0 mg/kg/injection, schedule: Q01DX001 (ip), vehicle: Klucel (hydroxypropylcellulose) (HPC) 104 % of control
